Experiments:
Cbl-b (aa36-427) = molecular target: T1, Cbl-b (aa36-427) (Homo sapiens, UniProt Q13191); assay: Co-expressed Cbl-b with BirA biochemical assay (CBLB/E2-Ub binding, HTRF); conditions: 0.6 nM Cbl-b co-expressed with BirA, HTRF; read-out: co-express CBLB/E2-Ub-binding assay IC50
T1 construct: Cbl-b (aa36-427, in-house); made in house
Source text: (§1) The assay in the absence of a Cbl-b/Cbl inhibitor, where phosphorylation of Cbl-b/Cbl by the Src kinase allows UbcH5B-Ub to bind to Cbl-b/Cbl and brings the Bodipy-Fluorescein tagged ubiquitin in proximity to the streptavidin-terbium bound to the N-terminal biotinylated Avi-tagged Cbl-b/Cbl. […] The lack of a FRET signal indicates Cbl-b/Cbl is inhibited by the Cbl-b/Cbl inhibitor.

Cbl (aa49-434) = molecular target: T2, Cbl (aa49-434) (Homo sapiens, UniProt P22681); assay: Co-expressed Cbl with BirA biochemical assay (CBL/E2-Ub binding, HTRF); conditions: 0.6 nM Cbl co-expressed with BirA, read-out: co-express CBL/E2-Ub-binding assay IC50
T2 construct: Cbl (aa49-434, in-house); made in house
T2 sequence (P22681 49-434): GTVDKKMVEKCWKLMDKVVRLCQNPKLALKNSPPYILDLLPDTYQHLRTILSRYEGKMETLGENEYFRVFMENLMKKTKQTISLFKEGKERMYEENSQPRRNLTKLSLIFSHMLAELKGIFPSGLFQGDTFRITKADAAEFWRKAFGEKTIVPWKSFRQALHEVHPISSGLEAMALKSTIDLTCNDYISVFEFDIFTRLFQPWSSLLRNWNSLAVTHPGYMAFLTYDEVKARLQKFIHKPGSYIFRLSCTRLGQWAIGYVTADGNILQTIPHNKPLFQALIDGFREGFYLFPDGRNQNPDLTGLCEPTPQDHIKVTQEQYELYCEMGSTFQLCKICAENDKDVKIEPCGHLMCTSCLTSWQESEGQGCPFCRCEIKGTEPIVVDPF
Source text: as §1

T1 sequence (Q13191 36-427): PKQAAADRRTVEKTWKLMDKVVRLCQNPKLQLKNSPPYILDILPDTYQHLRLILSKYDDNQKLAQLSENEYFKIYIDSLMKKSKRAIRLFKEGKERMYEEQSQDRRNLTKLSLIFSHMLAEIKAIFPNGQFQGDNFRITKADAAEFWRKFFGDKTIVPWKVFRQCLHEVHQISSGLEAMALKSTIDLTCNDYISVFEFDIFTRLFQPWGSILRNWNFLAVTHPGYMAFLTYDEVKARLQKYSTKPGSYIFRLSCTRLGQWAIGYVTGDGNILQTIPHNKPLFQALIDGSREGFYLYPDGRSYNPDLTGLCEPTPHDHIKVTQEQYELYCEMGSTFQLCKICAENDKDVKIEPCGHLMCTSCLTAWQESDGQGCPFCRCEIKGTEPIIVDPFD

IC50 (Cbl-b (aa36-427)) [nM]	IC50 (Cbl (aa49-434)) [nM]	Compound
1.7	5.3	Cc1cnc2c(C(=O)Nc3cccc([C@]4(c5nncn5C)C[C@@H](C)C4)c3)cc(CN[C@@H](C)C3CC3)cn12 [Compound A59, 6-((((S)-1-cyclopropylethyl)amino)methyl)-3-methyl-N-(3-((1s,3R)-3-methyl-1-(4-methyl-4H-1,2,4-triazol-3-yl)cyclobutyl)phenyl)imidazo[1,2-a]pyridine-8-carboxamide]
0.9	1.1	C[C@H](NCc1cc(C(=O)Nc2cncc([C@]3(c4nncn4C)C[C@@H](C)C3)c2)c2ncc(F)n2c1)C1CCC1 [Compound A50, 6-({[(1S)-1-cyclobutylethyl]amino}methyl)-3-fluoro-N-{5-[(1r, 3s)-3-methyl-1-(4-methyl-1,2,4-triazol-3-yl)cyclobutyl]pyridin-3-yl}imidazo[1,2-a]pyridine-8-carboxamide]
0.8	3.4	Cn1cnnc1[C@]1(c2cccc(NC(=O)c3cc(CNCC4CCC4)cn4c(F)cnc34)c2)C[C@H](C)C1 [Compound A52, 6-(((cyclobutylmethyl)amino)methyl)-3-fluoro-N-(3-((1s, 3s)-3-methyl-1-(4-methyl-4H-1,2,4-triazol-3-yl)cyclobutyl)phenyl)imidazo[1,2-a]pyridine-8-carboxamide]
4.2	9.6	Cn1cnnc1[C@]1(c2cncc(NC(=O)c3cc(CNCC4CCC4)c4c(n3)C(C)(C)CC4)c2)C[C@H](C)C1 [Compound C29, 4-(((cyclobutylmethyl)amino)methyl)-7,7-dimethyl-N-(5-((1s, 3s)-3-methyl-1-(4-methyl-4H-1,2,4-triazol-3-yl)cyclobutyl)pyridin-3-yl)-6,7-dihydro-5H-cyclopenta[b]pyridine-2-carboxamide]
2.5	7.3	C[C@H](NCc1cc(C(=O)Nc2cccc([C@]3(c4nncn4C)C[C@@H](C)C3)c2)nc2c1CCC2(F)F)C1CCC1 [Compound C59, 4-((((S)-1-cyclobutylethyl)amino)methyl)-7,7-difluoro-N-(3-((1s,3R)-3-methyl-1-(4-methyl-4H-1,2,4-triazol-3-yl)cyclobutyl)phenyl)-6,7-dihydro-5H-cyclopenta[b]pyridine-2-carboxamide]
3.1	9.7	Cn1cnnc1[C@]1(c2cncc(NC(=O)c3cc(CNCC4CCC4)c4[nH]cc(Cl)c4n3)c2)C[C@H](C)C1 [Compound B53, 3-chloro-7-(((cyclobutylmethyl)amino)methyl)-N-(5-((1s, 3s)-3-methyl-1-(4-methyl-4H-1,2,4-triazol-3-yl)cyclobutyl)pyridin-3-yl)-1H-pyrrolo[3,2-b]pyridine-5-carboxamide]
1	3.5	C[C@H](NCc1cc(C(=O)Nc2cccc([C@]3(c4nncn4C)C[C@@H](CC#N)C3)c2)nc2c1NCC2(C)C)C1CC1 [Compound C27, 7-({[(1S)-1-cyclopropylethyl]amino}methyl)-3,3-dimethyl-N-{3-[(1s, 3s)-3-(cyanomethyl)-1-(4-methyl-1,2,4-triazol-3-yl)cyclobutyl]phenyl}-1H,2H-pyrrolo[3,2-b]pyridine-5-carboxamide]
7.2	19.8	C[C@H]1CCCN(Cc2cc(C(=O)Nc3cccc([C@]4(c5nncn5C)C[C@@H](C)C4)c3)c3ncc(F)n3c2)C1 [Compound A6, 3-fluoro-6-{[(3S)-3-methylpiperidin-1-yl]methyl}-N-{3-[(1r, 3s)-3-methyl-1-(4-methyl-1,2,4-triazol-3-yl)cyclobutyl]phenyl}imidazo[1,2-a]pyridine-8-carboxamide]
5	19	Cn1cnnc1[C@]1(c2cncc(NC(=O)c3cc(CNC4(C)CCC4)c4[nH]cc(Cl)c4n3)c2)C[C@H](C)C1 [Compound B52, 3-chloro-N-(5-((1s, 3s)-3-methyl-1-(4-methyl-4H-1,2,4-triazol-3-yl)cyclobutyl)pyridin-3-yl)-7-(((1-methylcyclobutyl)amino)methyl)-1H-pyrrolo[3,2-b]pyridine-5-carboxamide]
1	1.7	CC(C)CNCc1cc(C(=O)Nc2cncc([C@]3(c4nncn4C)C[C@@H](C)C3)c2)c2ncc(Cl)n2c1 [Compound A83, 3-chloro-6-((isobutylamino)methyl)-N-(5-((1s, 3s)-3-methyl-1-(4-methyl-4H-1,2,4-triazol-3-yl)cyclobutyl)pyridin-3-yl)imidazo[1,2-a]pyridine-8-carboxamide]
1.8	3.9	C[C@H]1CCCN(Cc2cc(C(=O)Nc3cccc([C@]4(Cc5nncn5C)C[C@@H](C#N)C4)c3)nc3c(F)c[nH]c23)C1 [Compound B20, N-(3-((1r,3S)-3-cyano-1-((4-methyl-4H-1,2,4-triazol-3-yl)methyl)cyclobutyl)phenyl)-3-fluoro-7-(((S)-3-methylpiperidin-1-yl)methyl)-1H-pyrrolo[3,2-b]pyridine-5-carboxamide]
6.1	47	C[C@H]1CCCN(Cc2cc(C(=O)Nc3cccc([C@]4(c5nncn5C)C[C@@H](CC#N)C4)c3)c3nc(F)cn3c2)C1 [Compound A13, N-(3-((1s,3R)-3-(cyanomethyl)-1-(4-methyl-4H-1,2,4-triazol-3-yl)cyclobutyl)phenyl)-2-fluoro-6-(((S)-3-methylpiperidin-1-yl)methyl)imidazo[1,2-a]pyridine-8-carboxamide]
1	2.4	Cn1cnnc1[C@]1(c2cccc(NC(=O)c3cc(CNCC4(C)CCCC4)cn4c(Cl)cnc34)c2)C[C@H](CC#N)C1 [Compound A28, 3-chloro-N-(3-((1s, 3s)-3-(cyanomethyl)-1-(4-methyl-4H-1,2,4-triazol-3-yl)cyclobutyl)phenyl)-6-((((1-methylcyclopentyl)methyl)amino)methyl)imidazo[1,2-a]pyridine-8-carboxamide]
3.9	17	Cn1cnnc1[C@]1(c2cccc(NC(=O)c3cc(CNC4(C)CCC4)c4c(n3)C3(CC3)CN4)c2)C[C@H](CC#N)C1 [Compound C31, N-(3-((1s, 3s)-3-(cyanomethyl)-1-(4-methyl-4H-1,2,4-triazol-3-yl)cyclobutyl)phenyl)-7′-(((1-methylcyclobutyl)amino)methyl)-1′,2′-dihydrospiro[cyclopropane-1,3′-pyrrolo[3,2-b]pyridine]-5′-carboxamide]
1.5	4.3	Cn1cnnc1[C@]1(c2cccc(NC(=O)c3cc(CNCC4CCCC4)cn4c(F)cnc34)c2)C[C@H](C)C1 [Compound A51, 6-(((cyclopentylmethyl)amino)methyl)-3-fluoro-N-(3-((1s, 3s)-3-methyl-1-(4-methyl-4H-1,2,4-triazol-3-yl)cyclobutyl)phenyl)imidazo[1,2-a]pyridine-8-carboxamide]
1.1	9.2	C[C@H](NCc1cc(C(=O)Nc2cccc([C@]3(c4nncn4C)C[C@@H](C)C3)c2)nc2c1CCC2(F)F)C1CC1 [Compound C60, 4-((((S)-1-cyclopropylethyl)amino)methyl)-7,7-difluoro-N-(3-((1s,3R)-3-methyl-1-(4-methyl-4H-1,2,4-triazol-3-yl)cyclobutyl)phenyl)-6,7-dihydro-5H-cyclopenta[b]pyridine-2-carboxamide]
1	1.8	C[C@H]1CCCN(Cc2cc(C(=O)Nc3cccc([C@]4(Cc5nncn5C)C[C@@H](C#N)C4)c3)nc3c2CCC3(C)C)C1 [Compound C8, N-(3-((1r,3S)-3-cyano-1-((4-methyl-4H-1,2,4-triazol-3-yl)methyl)cyclobutyl)phenyl)-7,7-dimethyl-4-(((S)-3-methylpiperidin-1-yl)methyl)-6,7-dihydro-5H-cyclopenta[b]pyridine-2-carboxamide]
3	12	C[C@H]1CCCN(Cc2cc(C(=O)Nc3cccc([C@]4(c5nncn5C)C[C@@H](C)C4)c3)nc3cc[nH]c23)C1 [Compound B4, N-(3-((1s,3R)-3-methyl-1-(4-methyl-4H-1,2,4-triazol-3-yl)cyclobutyl)phenyl)-7-(((S)-3-methylpiperidin-1-yl)methyl)-1H-pyrrolo[3,2-b]pyridine-5-carboxamide]
0.8	4.8	Cn1cnnc1[C@]1(c2cccc(NC(=O)c3cc(CNCC4(F)CCC4)cn4ccnc34)c2)C[C@H](CC#N)C1 [Compound A37, N-(3-((1s, 3s)-3-(cyanomethyl)-1-(4-methyl-4H-1,2,4-triazol-3-yl)cyclobutyl)phenyl)-6-((((1-fluorocyclobutyl)methyl)amino)methyl)imidazo[1,2-a]pyridine-8-carboxamide]

Compound	IC50 (Cbl-b (aa36-427)) [nM]	IC50 (Cbl (aa49-434)) [nM]
N-(3-((1s,3R)-3-methyl-1-(4-methyl-4H-1,2,4-triazol-3-yl)cyclobutyl)phenyl)-7′-(((S)-3-methylpiperidin-1-yl)methyl)-1′,2′-dihydrospiro[cyclopropane-1,3′-pyrrolo[3,2-b]pyridine]-5′-carboxamide [Compound C51]	1.5	4.9

Reference: patent publication US20250163047A1, “HETEROCYCLIC COMPOUNDS, COMPOSITIONS THEREOF, AND METHODS OF TREATMENT THEREWITH” (BeiGene, Ltd., priority 2022, published 2025)
